In patent US20070128217A1 (priority 2003, published 2007):

Legend:
[1] = test system: control sera (pooled serum of ten healthy LUMC hospital workers; commercial negative donor pooled serum from the Dutch bloodbank); format: binding, human; design: Binding of Control serum LUMC to linear peptides / Binding of Control serum Blood-bank to linear peptides / Binding of Control serum LUMC to looped peptides / Binding of Control Serum Blood-Bank to Looped peptides / Binding of Control serum LUMC to linear peptides of the protein M of SARS-CoV Urbani / Binding of Control serum Blood-bank to linear peptides of the protein M of SARS-CoV Urbani / Binding of Control serum LUMC to looped peptides of the protein M of SARS-CoV Urbani / Binding of Control Serum Blood-Bank to Looped peptides of the protein M of SARS-CoV Urbani: unit not given here
[2] = test system: rabbit serum obtained by immunizing a rabbit with the SARS-CoV strain Frankfurt 1; format: binding; design: Binding of a rabbit serum to linear peptides / Binding of a rabbit serum to looped peptides / Rabbit serum linear peptides / Rabbit serum looped peptides / Binding of a rabbit serum to linear peptides of protein N of SARS-CoV Urbani (Rabbit serum linear peptides) / Binding of a rabbit serum to looped/cyclic peptides of protein N of SARS-CoV Urbani (Rabbit serum looped peptides): unit not given here
[3] = test system: antibodies in sera from SARS patients (sera 1a, 1b, 2, 6, 37, 62, London, SARS-yellow, SARS-green); format: binding, human; design: Binding of serum 6 to linear peptides of protein X1 of SARS-CoV Urbani / Binding of serum 37 to linear peptides of protein X1 of SARS-CoV Urbani / Binding of serum 6 to looped/cyclic peptide (PEPSCAN-ELISA) / Binding of serum 37 to looped/cyclic peptide (PEPSCAN-ELISA) / Binding of serum 37 to looped/cyclic peptides of protein X1 of SARS-CoV Urbani / Binding of serum 6 to linear peptides of protein X2 / Binding of serum 37 to linear peptides of protein X2 / Binding of serum 37 to looped/cyclic peptides of protein X2 of SARS-CoV Urbani / Binding of serum 6 to linear peptides of protein M of SARS-CoV Urbani / Binding of serum 37 to linear peptides of protein M of SARS-CoV Urbani / Binding of serum 6 to looped/cyclic peptides of protein M of SARS-CoV Urbani / Binding of serum 37 to looped/cyclic peptides of protein M of SARS-CoV Urbani / Binding of serum 6 to linear peptides of protein X3 of SARS-CoV Urbani / Binding of serum 37 to linear peptides of protein X3 of SARS-CoV Urbani / Binding of serum 37 to looped/cyclic peptides of protein X3 of SARS-CoV Urbani / Binding of serum 6 to linear peptides of protein X4 of SARS-CoV Urbani / Binding of serum 37 to linear peptides of protein X4 of SARS-CoV Urbani / Binding of serum 37 to looped/cyclic peptides of protein X4 of SARS-CoV Urbani / Binding of serum 6 to linear peptides of protein X5 of SARS-CoV Urbani / Binding of serum 37 to linear peptides of protein X5 of SARS-CoV Urbani / Binding of serum 37 to looped/cyclic peptides of protein X5 of SARS-CoV Urbani / Binding of serum 6 to linear peptides of protein N of SARS-CoV Urbani / Binding of serum 37 to linear peptides of protein N of SARS-CoV Urbani / Binding of serum 6 to linear peptide (PEPSCAN-ELISA) / Binding of serum 1a to looped/cyclic peptides of protein N of SARS-CoV Urbani / Binding of serum 1b to looped/cyclic peptides of protein N of SARS-CoV Urbani / Binding of serum 2 to looped/cyclic peptides of protein N of SARS-CoV Urbani / Binding of serum 6 to looped/cyclic peptides of protein N of SARS-CoV Urbani / Binding of serum 37 to looped/cyclic peptides of protein N of SARS-CoV Urbani / Binding of serum 62 to looped/cyclic peptides of protein N of SARS-CoV Urbani / Binding of serum London to looped/cyclic peptides of protein N of SARS-CoV Urbani / Binding of serum SARS-green to looped/cyclic peptides of protein N of SARS-CoV Urbani: unit not given here

In the case of FIRQEEVQQELYSPL, the “Binding of Control Serum Blood-Bank to Looped peptides” value [1] was 0.9, the “Binding of Control serum Blood-bank to linear peptides” value [1] was 0.7 and the “Binding of Control serum LUMC to linear peptides” value [1] was 0.7. The “Binding of Control serum LUMC to looped peptides” value [1] was 0.9, the “Rabbit serum linear peptides” value [2] was 0.5 and the “Rabbit serum looped peptides” value [2] was 0.5. The “Binding of serum 1a to linear peptides of protein X4 of SARS-CoV Urbani” value [3] was 0.8, the “Binding of serum 1b to linear peptides of protein X4 of SARS-CoV Urbani” value [3] was 0.6 and the “Binding of serum 2 to linear peptides of protein X4 of SARS-CoV Urbani” value [3] was 0.5. For the same sequence, the “Binding of serum 6 to linear peptides of protein X4 of SARS-CoV Urbani” value [3] was 0.5, the “Binding of serum 37 to linear peptides of protein X4 of SARS-CoV Urbani” value [3] was 0.8 and the “Binding of serum 62 to linear peptides of protein X4 of SARS-CoV Urbani” value [3] was 0.7. For the same sequence, the “Binding of serum London to linear peptides of protein X4 of SARS-CoV Urbani” value [3] was 0.7, the “Binding of serum SARS-green to linear peptides of protein X4 of SARS-CoV Urbani” value [3] was 0.5 and the “Binding of serum SARS-yellow to linear peptides of protein X4 of SARS-CoV Urbani” value [3] was 0.7. The “Recognition of the peptide by sera of SARS-CoV infected individuals, and form (linear, looped/cyclic) in which it is recognized” value [3] was “recognized in looped/cyclic form”.

In the case of GALIARCWYLHEGHQ, the “Binding of Control Serum Blood-Bank to Looped peptides” value [1] was 0.3, the “Binding of Control serum Blood-bank to linear peptides” value [1] was 0.6 and the “Binding of Control serum LUMC to linear peptides” value [1] was 0.4. The “Binding of Control serum LUMC to looped peptides” value [1] was 0.2, the “Rabbit serum linear peptides” value [2] was 0.6 and the “Rabbit serum looped peptides” value [2] was 0.0. For the same sequence, the “Binding of serum 1a to linear peptides of protein X5 of SARS-CoV Urbani” value [3] was 0.7, the “Binding of serum 1a to looped/cyclic peptides of protein X5 of SARS-CoV Urbani” value [3] was 0.4 and the “Binding of serum 1b to linear peptides of protein X5 of SARS-CoV Urbani” value [3] was 0.6. The “Binding of serum 1b to looped/cyclic peptides of protein X5 of SARS-CoV Urbani” value [3] was 0.4, the “Binding of serum 2 to linear peptides of protein X5 of SARS-CoV Urbani” value [3] was 0.6 and the “Binding of serum 2 to looped/cyclic peptides of protein X5 of SARS-CoV Urbani” value [3] was 0.7. The “Binding of serum 6 to linear peptides of protein X5 of SARS-CoV Urbani” value [3] was 0.7, the “Binding of serum 6 to looped/cyclic peptides of protein X5 of SARS-CoV Urbani” value [3] was 0.3 and the “Binding of serum 37 to linear peptides of protein X5 of SARS-CoV Urbani” value [3] was 0.7. The “Binding of serum 37 to looped/cyclic peptides of protein X5 of SARS-CoV Urbani” value [3] was 0.4, the “Binding of serum 62 to linear peptides of protein X5 of SARS-CoV Urbani” value [3] was 0.7 and the “Binding of serum 62 to looped/cyclic peptides of protein X5 of SARS-CoV Urbani” value [3] was 0.3. For the same sequence, the “Binding of serum London to linear peptides of protein X5 of SARS-CoV Urbani” value [3] was 0.6, the “Binding of serum London to looped/cyclic peptides of protein X5 of SARS-CoV Urbani” value [3] was 0.1 and the “Binding of serum SARS-green to linear peptides of protein X5 of SARS-CoV Urbani” value [3] was 0.6. The “Binding of serum SARS-green to looped/cyclic peptides of protein X5 of SARS-CoV Urbani” value [3] was 0.8, the “Binding of serum SARS-yellow to linear peptides of protein X5 of SARS-CoV Urbani” value [3] was 0.1 and the “Binding of serum SARS-yellow to looped/cyclic peptides of protein X5 of SARS-CoV Urbani” value [3] was 0.3.

ELKQLLEQWNLVIGF was tested, and the “Binding of Control Serum Blood-Bank to Looped peptides of the protein M of SARS-CoV Urbani” value [1] was 0.6, the “Binding of Control serum Blood-bank to linear peptides of the protein M of SARS-CoV Urbani” value [1] was 0.8 and the “Binding of Control serum LUMC to linear peptides of the protein M of SARS-CoV Urbani” value [1] was 0.7. For the same sequence, the “Binding of Control serum LUMC to looped peptides of the protein M of SARS-CoV Urbani” value [1] was 0.7, the “Rabbit serum linear peptides” value [2] was 0.0 and the “Rabbit serum looped peptides” value [2] was 0.2. The “Binding of serum 1a to linear peptides of protein M of SARS-CoV Urbani” value [3] was 0.8, the “Binding of serum 1a to looped/cyclic peptides of protein M of SARS-CoV Urbani” value [3] was 0.6 and the “Binding of serum 1b to linear peptides of protein M of SARS-CoV Urbani” value [3] was 0.8. For the same sequence, the “Binding of serum 1b to looped/cyclic peptides of protein M of SARS-CoV Urbani” value [3] was 0.6, the “Binding of serum 2 to linear peptides of protein M of SARS-CoV Urbani” value [3] was 0.5 and the “Binding of serum 2 to looped/cyclic peptides of protein M of SARS-CoV Urbani” value [3] was 0.5. The “Binding of serum 6 to linear peptides of protein M of SARS-CoV Urbani” value [3] was 0.6, the “Binding of serum 6 to looped/cyclic peptides of protein M of SARS-CoV Urbani” value [3] was 0.8 and the “Binding of serum 37 to linear peptides of protein M of SARS-CoV Urbani” value [3] was 0.6. The “Binding of serum 37 to looped/cyclic peptides of protein M of SARS-CoV Urbani” value [3] was 0.7, the “Binding of serum 62 to linear peptides of protein M of SARS-CoV Urbani” value [3] was 0.5 and the “Binding of serum 62 to looped/cyclic peptides of protein M of SARS-CoV Urbani” value [3] was 0.5. The “Binding of serum London to linear peptides of protein M of SARS-CoV Urbani” value [3] was 0.6, the “Binding of serum London to looped/cyclic peptides of protein M of SARS-CoV Urbani” value [3] was 0.3 and the “Binding of serum SARS-green to linear peptides of protein M of SARS-CoV Urbani” value [3] was 0.5. For the same sequence, the “Binding of serum SARS-green to looped/cyclic peptides of protein M of SARS-CoV Urbani” value [3] was 0.7, the “Binding of serum SARS-yellow to linear peptides of protein M of SARS-CoV Urbani” value [3] was 0.3 and the “Binding of serum SARS-yellow to looped/cyclic peptides of protein M of SARS-CoV Urbani” value [3] was 0.9.
